One assay relates to DDX3X-K118Ac. Briefly: DDX3X acetylation in HEK293T cells expressing CBP or p300 (immunoprecipitation and immunoblotting). It is filed as cell-based, human. As to conditions: for DDX3X-K118Ac signal after treating the cells with HDAC inhibitors: HEK293T cells transiently expressing CBP, DDX3X-K118Ac-specific antibody. As to the method: HEK293T cells were transfected with Lipofectamine 2000 (Life Technologies) or FuGENE HD (Promega), and MEF cells were transfected with 4D-Nucleofector™ System (Lonza), following manufacturer's protocol.
Cells were washed by ice-cold PBS and lysed in Triton lysis buffer (50 mM Tris-HCl, pH8.0, 150 mM sodium chloride, 1 mM EDTA, 0.1% TritonX-100 and Complete EDTA-free protease inhibitors (Roche)) for analysis. To detect protein acetylation, 0.2 μM Trichostatin A and 5 mM nicotinamide was added to PBS for wash, and 10 μM Trichostatin A, 10 mM nicotinamide, 50 mM sodium butyrate were added to Triton lysis buffer. To detect protein phosphorylation, Pierce Protease and Phosphatase Inhibitor Mini Tablets (Thermo scientific) were added to Triton lysis buffer instead of Complete EDTA-free protease inhibitors. Five hundred μg protein lysates were incubated with the specific antibody for overnight at 4° C., and immunoprecipitated with Dynabeads ProteinG (invitrogen) for 1 h at 4° C. Samples were boiled for 10 min in SDS-PAGE sample buffer, and separated with 4-12% NuPAGE gels (invitrogen). […] For inhibition of HDACs in cells, concentration of each HDAC inhibitor was as described in {Scholz, 2015 #851}.
(§1) To investigate whether DDX3X-K118Ac is a direct target site of HDAC6, the inventors performed a biochemical assay using purified components. […] Next, they tested the acetylation status of DDX3X in cells. It has been shown that the stoichiometry of acetylation is generally low {Weinert, 2014 #452}, making it difficult to detect. The inventors therefore attempted to enhance the level of acetylation by expressing different HATs. To test which HAT(s) can act on DDX3X, expression vectors for PCAF, CBP, Tip60 or p300 were individually transfected into HEK293T cells and cellular extracts were analyzed by immunoprecipitation and immunoblotting.
Different deacetylases often redundantly target the same lysine acetylation site on a target protein. […] To test whether the DDX3X-K118 deacetylation is specific for HDAC6, the inventors transiently expressed CBP in HEK293T cells and assessed the DDX3X-K118Ac signal after treating the cells with several HDAC inhibitors.

Assay [1] deals with T1, Danio rerio HDAC6 CD1-CD2 (a.a.40-831) (Danio rerio, UniProt F8W4B7).
T1 construct: Danio rerio HDAC6 CD1-CD2 (a.a.40-831) was expressed in Sf9 insect cells; made in house; host or cells: Sf9 insect cells
T1 sequence (F8W4B7 40-831): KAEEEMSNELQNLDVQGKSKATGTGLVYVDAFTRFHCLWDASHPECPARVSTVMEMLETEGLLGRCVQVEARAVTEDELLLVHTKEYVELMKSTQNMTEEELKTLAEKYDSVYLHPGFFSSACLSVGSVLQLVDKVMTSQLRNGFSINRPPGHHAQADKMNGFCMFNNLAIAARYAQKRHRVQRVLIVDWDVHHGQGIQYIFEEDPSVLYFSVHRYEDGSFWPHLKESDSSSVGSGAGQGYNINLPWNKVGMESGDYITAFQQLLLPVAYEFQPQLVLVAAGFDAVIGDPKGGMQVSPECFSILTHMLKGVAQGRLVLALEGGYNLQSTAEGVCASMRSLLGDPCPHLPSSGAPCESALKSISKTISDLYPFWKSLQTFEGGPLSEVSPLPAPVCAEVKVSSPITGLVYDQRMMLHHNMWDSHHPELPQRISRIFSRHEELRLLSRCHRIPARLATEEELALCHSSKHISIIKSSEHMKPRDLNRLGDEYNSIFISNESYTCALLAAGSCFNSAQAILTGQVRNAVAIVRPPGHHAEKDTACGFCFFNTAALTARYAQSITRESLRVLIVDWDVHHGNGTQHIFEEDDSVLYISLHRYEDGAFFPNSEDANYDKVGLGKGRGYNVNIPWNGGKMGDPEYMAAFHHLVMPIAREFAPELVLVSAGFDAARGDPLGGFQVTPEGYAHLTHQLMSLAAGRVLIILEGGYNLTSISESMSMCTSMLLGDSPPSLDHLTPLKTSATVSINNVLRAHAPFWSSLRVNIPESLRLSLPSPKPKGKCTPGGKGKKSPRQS
Put plainly: In vitro HDAC6 deacetylation assay with DDX3X-K118 acetylated peptide. It is filed as biochemical. As to conditions: 1 μM Trichostatin A, 3 hours, 37° C., HPLC UV 214 nm.
Source text: as §1

The subject of another assay is DDX3X-K118 acetylation. Briefly: DDX3X-K118 acetylation under arsenite-induced oxidative stress (immunoblotting). It counts as cell-based.

As to `CCCCOc1ccc(CC(=O)NO)cc1` [Bufexamac], the “DDX3X-K118Ac signal after treating the cells with HDAC inhibitors” value (“DDX3X-K118Ac signal … with HDAC inhibitors” below) in the assay on DDX3X-K118Ac is on record as “increased”. Consider `CC(/C=C/C(=O)NO)=C\[C@@H](C)C(=O)c1ccc(N(C)C)cc1` [Trichostatin A], for which the “deacetylation of the DDX3X-K118Ac peptide by purified tandem HDAC6 catalytic domains” value in assay [1] was “inhibited”.

Regarding `O=C(CCCCCCC(=O)Nc1ccc([C@H]2O[C@@H](CSc3nc(-c4ccccc4)c(-c4ccccc4)o3)C[C@@H](c3ccc(CO)cc3)O2)cc1)NO` [Tubacin], the “acetylation level of endogenous or overexpressed DDX3X” value in the assay on DDX3X-K118Ac (HEK293T cells transfected with CBP or p300 (with or without DDX3X construct), treatment of the cells with inhibitor) is “increased even further”. Besides, in the assay on DDX3X-K118Ac, the “DDX3X-K118Ac signal … with HDAC inhibitors” value is on record as “increased”. Besides, the “DDX3X-K118 acetylation after arsenite treatment plus HDAC6 inhibitor” value in the assay on DDX3X-K118 acetylation (WT cells treated with arsenite and also with Tubacin) is “further increased”. Take `CN1CCc2c(c3ccccc3n2Cc2ccc(C(=O)NO)cc2)C1` [Tubastatin A]: in the assay on DDX3X-K118Ac, the “DDX3X-K118Ac signal … with HDAC inhibitors” value is reported as “increased”.

Take `NC(=O)c1cccnc1` [nicotinamide]: the “DDX3X-K118Ac signal … with HDAC inhibitors” value in the assay with DDX3X-K118Ac is “neither nicotinamide, a sirtuin deacetylase inhibitor, nor sodium butyrate, a class I HDAC inhibitor, altered the acetylation status”. On the same count and under the same terms, the result for `CCCC(=O)[O-].[Na+]` [sodium butyrate] reads “neither nicotinamide, a sirtuin deacetylase inhibitor, nor sodium butyrate, a class I HDAC inhibitor, altered the acetylation status”. Regarding sodium arsenite, the “DDX3X-K118 acetylation after arsenite treatment” value in the assay on DDX3X-K118 acetylation was “increased”.
